Measurements reported in PMC12186255, “Discovery and Characterization of Small Molecule Inhibitors Targeting Exonuclease 1 for Homologous Recombination-Deficient Cancer Therapy” (ACS Chemical Biology, 2025).
pIC50: −log10 of the molar value.

What was measured:
U2OS cells = experiment: Homologous recombination assay (HR-GFP reporter); type: cell-based, human; settings: I-SceI, 0, 10, 50, 100 μM, 48 h
Method: Following viral infection, the culture medium was replaced with a fresh medium containing small molecule inhibitors. […] Subsequently, cells were harvested, and GFP-positive frequencies indicative of HR repair events were quantified using a CyAn ADP Analyzer (Beckman Coulter, Inc.). Experiments were performed in triplicate, and data are presented as mean ± standard deviation (S.D.).

MDA-MB-468 = experiment: Cell line drug profiling, CellTiter Glo; type: cell-based, human; settings: Homo sapiens, MDA-MB-468, 72 h
Method: We tested the cytotoxicity of representative compounds from the seven EXO1i scaffolds against a subset of the NCI-60 cell line panel along with three additional pancreatic cell lines (FG, AsPC1, and CaPan2). In general, cells were seeded in 384-well tissue culture-treated plates overnight and treated with various concentrations of each hit compound (a serial 3-fold dilution from 50 μM for all tested hits). Each concentration was performed in duplicate. Cell viability was then measured by CellTiter Glo (Promega) after 72 h of treatment.

MDA-MB-436 cells = experiment: γ-H2AX immunofluorescence and Western blot (DSB burden); type: cell-based, human; settings: MDA-MB-436 parental (BRCA1-deficient) cells, 10 or 50 μM, overnight/24 h
Method: (b) Quantification of the relative γ-H2AX per nucleus from panel a. […] The intensity of the γ-H2AX bands correlates with the level of DSBs observed in the immunofluorescence images in panel a. […] Strong γ-H2AX foci are observed, indicating an increased burden of DSBs. […] (e) Quantification of the relative γ-H2AX per nucleus is depicted in panel d. […] The intensity of the γ-H2AX bands correlates with the level of DSBs observed in the immunofluorescence images in panel d.
Cells were seeded at a density of 3× 10^5 cells per well in 12-well plates with preplaced coverslips and treated with or without various inhibitor treatments overnight. Cells were then incubated with EdU for 30 min before collection. For PARylation analysis, cells were permeabilized with 0.1% Triton X100, fixed with 4% paraformaldehyde, blocked with the Image-iT FX signal enhancer (Invitrogen), and incubated (1.5 h, RT) with the indicated primary antibodies (PAR/pADPr Antibody; Biotechne). […] The slides were then washed with the PBS buffer, counterstained with DAPI, and analyzed with a fluorescence microscope (Zeiss Observer Z1). […] The slides were then washed with the PBS buffer, incubated with the Click-iT reaction mix for EdU as aforementioned, counterstained with DAPI, and analyzed with a fluorescence microscope (Zeiss Observer Z1).

MDA-MB-231 cells = experiment: Gel-based phospho-RPA end resection assay; type: cell-based, human; settings: inhibitor overnight then 2 μM CPT 2 h, C5 10 μM
Method: The levels of RPA32 and phosphorylated RPA32 (S33) were analyzed by Western blotting using antibodies against RPA32 and phosphorylated RPA32 (S33). The total level of tubulin was used as a control. (b) Ratio of P-RPA:RPA levels calculated from panel a. […] U2OS cells carrying a GFP reporter for HR were infected with adenovirus expressing the I-SceI restriction enzyme. […] U2OS cells carrying a GFP reporter for HR were infected with adenovirus expressing the I-SceI restriction enzyme. […] For panels c and d, after 48 h, the cells were harvested, and the GFP-positive cells were analyzed by flow cytometry. Values are the mean ± S.D. of three independent experiments.
The treated cells were then lysed in the SDS-PAGE sample buffer, and the lysate was separated by SDS-PAGE prior to immobilization on a nitrocellulose membrane and Western blotting. Antibodies against unphosphorylated RPA, S33-P-RPA2, and tubulin were subsequently assayed according to the manufacturer’s recommendations. The ratio of P-RPA/RPA levels were quantified via ImageJ.

EXO1 = target: T1, EXO1 (Homo sapiens, UniProt Q9UQ84); experiment: Inhibitor kinetics by FRET-based EXO1 assay (Michaelis-Menten, Lineweaver-Burk); type: biochemical; settings: for V max: Michaelis–Menten plot; for mechanism of EXO1 inhibition: from Michaelis–Menten and Lineweaver–Burk plots
T1 construct: made in house
T1 sequence (Q9UQ84 1-846): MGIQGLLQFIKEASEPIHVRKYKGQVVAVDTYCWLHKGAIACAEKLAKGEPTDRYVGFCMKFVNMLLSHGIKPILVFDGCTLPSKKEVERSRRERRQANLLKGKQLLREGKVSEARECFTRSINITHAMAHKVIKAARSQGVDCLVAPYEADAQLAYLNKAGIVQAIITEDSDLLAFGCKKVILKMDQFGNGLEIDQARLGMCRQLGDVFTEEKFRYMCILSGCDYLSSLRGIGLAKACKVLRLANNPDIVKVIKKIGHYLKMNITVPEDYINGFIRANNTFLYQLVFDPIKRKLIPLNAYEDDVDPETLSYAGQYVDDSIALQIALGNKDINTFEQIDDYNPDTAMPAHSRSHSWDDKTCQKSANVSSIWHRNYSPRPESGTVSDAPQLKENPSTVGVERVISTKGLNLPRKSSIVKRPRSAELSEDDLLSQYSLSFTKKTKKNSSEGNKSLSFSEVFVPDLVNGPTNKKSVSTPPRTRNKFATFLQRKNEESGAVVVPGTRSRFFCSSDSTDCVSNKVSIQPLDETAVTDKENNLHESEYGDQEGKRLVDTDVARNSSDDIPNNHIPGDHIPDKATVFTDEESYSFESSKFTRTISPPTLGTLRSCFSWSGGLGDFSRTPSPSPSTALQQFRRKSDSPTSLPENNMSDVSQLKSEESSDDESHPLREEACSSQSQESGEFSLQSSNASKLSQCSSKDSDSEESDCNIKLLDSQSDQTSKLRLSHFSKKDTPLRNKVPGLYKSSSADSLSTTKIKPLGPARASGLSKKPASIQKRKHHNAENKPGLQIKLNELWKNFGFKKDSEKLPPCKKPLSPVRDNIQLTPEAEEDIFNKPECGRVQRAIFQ
Description: We then calculated the initial velocity of enzyme activity by calculating the rate within the linear region of the time-dependent RFU.
The initial velocity of enzyme activity was obtained by calculating the rate of the linear region of the time-dependent RFU.

Structure (SMILES): Cc1cccc(N2CCN(c3ccc(NS(=O)(=O)c4ccccc4)c(C(=O)O)c3)CC2)c1C [F684]
- HR frequency (GFP-positive cells) (U2OS cells): inhibition of HR that increased with dose
- pIC50 (MDA-MB-468): 4.63
- γ-H2AX levels (unresolved DSBs) (MDA-MB-436 cells): significant increase
- CPT-induced P-RPA levels (DNA end resection) (MDA-MB-231 cells): significantly reduced
- V max (EXO1; […] μM F684): 114.1 min^–1
- mechanism of EXO1 inhibition (EXO1): uncompetitive mechanism

Structure (SMILES): COC(=O)c1nc(-c2ccc(OC)cc2)nc(O)c1O [C200]
- HR frequency (GFP-positive cells) (U2OS cells): no significant changes
- pIC50 (MDA-MB-468): < 4.30
- γ-H2AX levels (unresolved DSBs) (MDA-MB-436 cells): no effect
- CPT-induced P-RPA levels (DNA end resection) (MDA-MB-231 cells): significantly reduced
- V max (EXO1; 2 μM C200): 415.5 min^–1
- mechanism of EXO1 inhibition (EXO1): uncompetitive mechanism
- pIC50 (EXO1; kinetic assays, read-out: IC50 of each compound, used as fixed inhibitor concentration): 5.70
